Bounds are passed on as bounds.

The text below walks through data of article PMC9855432, “Novel Set of Diarylmethanes to Target Colorectal Cancer: Synthesis, In Vitro and In Silico Studies” (Biomolecules, 2022).

One data set relates to human CRC HT-29 cells. In words: MTT cell viability / IC50 on HT-29 cells. In kind it is cell-based. Particulars: for IC50: MTT assay, 1 to 50 µM, mean ± SEM of at least three experiments; for viability at 50 µM: HT-29. The method, then: (§1) Cells were grown in DMEM medium for HT-29 cells and RPMI 1640 medium for HCT116 cells, supplemented with 10% FBS, 1% L-glutamine and 100 U/mL penicillin and 100 μg/mL streptomycin. Cultures were maintained in a humidified atmosphere containing 5% CO2 at 37 °C. Stock solutions of each compound were used at 10^−2 M in DMSO and then diluted in culture medium to obtain the appropriate final concentrations. […] L929 cell line is a non-cancer cell line derived from L-strain (L cells) and has been grown in the Peptinov laboratory for years. L929 cells are murine adherent fibroblasts from subcutaneous connective tissue (areolar and adipose tissues). Cells were grown in DMEM medium supplemented with 10% FBS, 1% L-glutamine and 100 U/mL penicillin and 100 µg/mL streptomycin and maintained in a humidified incubator at 37 °C, 5% CO2. When confluence is at 80%, cells are trypsinyzed for 3 min and diluted in fresh medium. Each batch of cells is kept for 15 passages before being discarded and a new batch thawed.
(§2) All compounds were tested on the metabolic activity of the cells using the MTT colorimetric assay. Briefly, cells were seeded in 96-well microplates at 8 × 10^3 cells/well for human CRC HT-29 cells and 5 × 10^3 cells/well for human CRC HCT116 cells and grown for 24 h in appropriate culture medium prior to exposure or not to compounds (6–27) with concentration ranges from 1 to 50 µM. After 48 h of treatment, MTT (5 g/L in Phosphate-buffered saline (PBS)) was added and incubated for another 3 h. The MTT was then removed from the wells and 100 µL/well of DMSO were added to dissolve formazan. The optical density was detected with a microplate reader (Thermoscientific, Multiskan FC) at 550 nm and cell viability was expressed as a percentage of each treatment condition compared to control cells. IC50 values were calculated for all compounds from the dose–response curve.
For orientation: Tetrazolium dyes change colour on reduction, which living cells bring about.

A further data set has as its system human CRC HCT116 cells. Briefly: MTT cell viability / IC50 on HCT116 cells. It is filed as cell-based. To be noted: for IC50: MTT assay, 1 to 50 µM, mean ± SEM of at least three experiments; for viability at 50 µM: HCT-116. The method, then:
as §1, §2

[1] abbreviates: Homo sapiens, 50 µM, 48 h, MTT screening.
Where [2] appears, read: concentrations up to 50 µM, 48 h.

Broadly, the IC50 is the concentration needed to halve the response being measured. On to `COc1ccc(OC(c2ccc(OC)cc2)c2ccccn2)cc1` (stereo not shown) [Compound 19, 2-((4-methoxyphenoxy)(4-methoxyphenyl)methyl)pyridine], for which the half-inhibitory concentration (IC50) with human CRC HT-29 cells (Homo sapiens, HT-29, 48 h) was over 50 µM; in the data set on human CRC HCT116 cells (Homo sapiens, HCT-116, 48 h), over 50 µM.
On to `COc1ccc(C(Oc2ccc(C)cc2)c2ccccn2)cc1` (stereo not shown) [Compound 18, 2-((4-methoxyphenyl)(p-tolyloxy)methyl)pyridine], for which the IC50 is over 50 µM with human CRC HT-29 cells (Homo sapiens, HT-29, 48 h) and over 50 µM in the data set on human CRC HCT116 cells (Homo sapiens, HCT-116, 48 h).
As for `COc1ccc(C(Oc2ccc(Cl)cc2)c2ccccn2)cc1` (stereo not shown) [Compound 21, 2-((4-chlorophenoxy)(4-methoxyphenyl)methyl)pyridine], the IC50 in the data set on human CRC HT-29 cells (Homo sapiens, HT-29, 48 h) is over 50 µM; with human CRC HCT116 cells (Homo sapiens, HCT-116, 48 h), over 50 µM.
Regarding `COc1ccc(C(Oc2ccc([N+](=O)[O-])cc2)c2ccccn2)cc1` (stereo not shown) [Compound 25, 2-((4-methoxyphenyl)(4-nitrophenoxy)methyl)pyridine], the IC50 was over 50 µM with human CRC HT-29 cells (Homo sapiens, HT-29, 48 h) and over 50 µM in the data set with human CRC HCT116 cells (Homo sapiens, HCT-116, 48 h).
`COc1ccc(C(Oc2ccc(N(C)C)cc2)c2ccccn2)cc1` (stereo not shown) [Compound 26, 4-((4-methoxyphenyl)(pyridin-2-yl)methoxy)-N,N-dimethylaniline]: the IC50 in the data set with human CRC HT-29 cells (Homo sapiens, HT-29, 48 h) is over 50 µM; in the data set with human CRC HCT116 cells (Homo sapiens, HCT-116, 48 h), over 50 µM.
Turning to `COc1ccc(C(Oc2ccc(C(F)(F)F)cc2)c2ccccn2)cc1` (stereo not shown) [Compound 24, 2-((4-methoxyphenyl)(4-(trifluoromethyl)phenoxy)methyl)pyridine], the IC50 in the data set with human CRC HT-29 cells (Homo sapiens, HT-29, 48 h) is over 50 µM; with human CRC HCT116 cells (Homo sapiens, HCT-116, 48 h), over 50 µM.
For `COc1ccc(C(=Cc2ccc(F)cc2)c2ccccn2)cc1` [Compound 15b, 2-(2-(4-fluorophenyl)-1-(4-methoxyphenyl)vinyl)pyridine], the IC50 with human CRC HT-29 cells (48 h) and in the data set with human CRC HCT116 cells (48 h) was over 50 µM throughout.
The term viability denotes a per cent measure of how many cells are alive, often set against a control. Low values mean a greater loss of cells, high ones better survival. Take `COc1ccc(C(Oc2ccc(Br)cc2)c2ccccn2)cc1` (stereo not shown) [Compound 22, 2-((4-bromophenoxy)(4-methoxyphenyl)methyl)pyridine]: the IC50 in the data set with human CRC HT-29 cells (Homo sapiens, HT-29, 48 h) was 37.9 ± 1.87 µM; in the data set on human CRC HCT116 cells (Homo sapiens, HCT-116, 48 h) it was 41.5 ± 1.48 µM. Further, the viability at 50 µM with human CRC HT-29 cells (setting [1]) and in the data set with human CRC HCT116 cells (setting [1]) was under 50% in each case. In the data set with human CRC HT-29 cells (setting [2]), the “antiproliferative activity HT-29 (in words)” value was “potential antiproliferative activity”. For the same molecule, the “antiproliferative activity HCT116 (in words)” value with human CRC HCT116 cells (setting [2]) is “potential antiproliferative activity”.
Regarding `COc1ccc(C(Oc2ccc(F)cc2)c2ccccn2)cc1` (stereo not shown) [Compound 23, 2-((4-fluorophenoxy)(4-methoxyphenyl)methyl)pyridine], the IC50 was over 50 µM with human CRC HT-29 cells (Homo sapiens, HT-29, 48 h) and over 50 µM with human CRC HCT116 cells (Homo sapiens, HCT-116, 48 h).
Turning to `COc1ccc(C(=Cc2ccc(O)cc2)c2ccccn2)cc1` [Compound 11b, 4-(2-(4-methoxyphenyl)-2-(pyridin-2-yl)vinyl)phenol], the IC50 in the data set on human CRC HT-29 cells (Homo sapiens, HT-29, 48 h) is over 50 µM; with human CRC HCT116 cells (Homo sapiens, HCT-116, 48 h), over 50 µM.
As to `COc1ccc(C(=Cc2ccccc2)c2ccccn2)cc1` [Compound 6a, 2-(1-(4-méthoxyphenyl) -2-phenylvinyl) pyridine], the half-maximal inhibitory concentration (IC50) in the data set with human CRC HT-29 cells (Homo sapiens, HT-29, 48 h) turned out to be 30.3 ± 1.78 µM; in the data set with human CRC HCT116 cells (Homo sapiens, HCT-116, 48 h), 35.6 ± 2.08 µM. The viability at 50 µM with human CRC HT-29 cells (setting [1]) and with human CRC HCT116 cells (setting [1]) was under 50% in each case.
For the molecule `COc1ccc(C(Oc2ccccc2)c2ccccn2)cc1` (stereo not shown) [Compound 17, 2-((4-methoxyphenyl)(phenoxy)methyl)pyridine], the IC50 in the data set with human CRC HT-29 cells (Homo sapiens, HT-29, 48 h) is over 50 µM; with human CRC HCT116 cells (Homo sapiens, HCT-116, 48 h) it was over 50 µM.
On to `COc1ccc(C(=Cc2ccccc2)c2ccccn2)cc1` [Compound 6b, 2-(1-(4-méthoxyphenyl) -2-phenylvinyl) pyridine], for which the IC50 with human CRC HT-29 cells (48 h) and in the data set on human CRC HCT116 cells (48 h) was over 50 µM each time.
`COc1ccc(C(Oc2ccc(C(C)=O)cc2)c2ccccn2)cc1` (stereo not shown) [Compound 27, 1-(4-((4-methoxyphenyl)(pyridin-2-yl)methoxy)phenyl)ethanone]: the IC50 was over 50 µM in the data set on human CRC HT-29 cells (Homo sapiens, HT-29, 48 h) and over 50 µM in the data set on human CRC HCT116 cells (Homo sapiens, HCT-116, 48 h).
Take `COc1ccc(C(=Cc2ccc(C(F)(F)F)cc2)c2ccccn2)cc1` [Compound 12b, 2-(1-(4-methoxyphenyl)-2-(4-(trifluoromethyl)phenyl)vinyl)pyridine]: the IC50 in the data set on human CRC HT-29 cells (48 h) and with human CRC HCT116 cells (48 h) was over 50 µM each time.
On to `COc1ccc(C(=Cc2ccc(C(C)C)cc2)c2ccccn2)cc1` [Compound 9b, 2-(2-(4-isopropylphenyl)-1-(4-methoxyphenyl)vinyl)pyridine], for which the 50% inhibitory concentration (IC50) is 34.9 ± 0.78 µM with human CRC HT-29 cells (Homo sapiens, HT-29, 48 h) and over 50 µM in the data set with human CRC HCT116 cells (Homo sapiens, HCT-116, 48 h). This molecule also had a viability at 50 µM in the data set with human CRC HT-29 cells (setting [1]) of under 50%.
As to `COc1ccc(C(Oc2ccc(C(C)(C)C)cc2)c2ccccn2)cc1` (stereo not shown) [Compound 20, 2-((4-(tert-butyl)phenoxy)(4-methoxyphenyl)methyl)pyridine], the 50% inhibitory concentration (IC50) was over 50 µM with human CRC HT-29 cells (Homo sapiens, HT-29, 48 h) and over 50 µM in the data set with human CRC HCT116 cells (Homo sapiens, HCT-116, 48 h).
Regarding `COc1ccc(C=C(c2ccc(OC)cc2)c2ccccn2)cc1` [Compound 8a, 2-(1,2-bis(4-methoxyphenyl)vinyl)pyridine], the IC50 in the data set on human CRC HT-29 cells (Homo sapiens, HT-29, 48 h) is 43.5 ± 4.91 µM; in the data set on human CRC HCT116 cells (Homo sapiens, HCT-116, 48 h), over 50 µM. Besides, the viability at 50 µM in the data set on human CRC HT-29 cells (setting [1]) was under 50%.
For `COc1ccc(C(=Cc2ccc(C)cc2)c2ccccn2)cc1` [Compound 7a, 2-(1-(4-methoxyphenyl)-2-(p-tolyl)vinyl)pyridine], in that order: 35 ± 1.99 µM, over 50 µM and under 50%.
For `COc1ccc(C(=Cc2ccc(Cl)cc2)c2ccccn2)cc1` [Compound 14b, 2-(2-(4-chlorophenyl)-1-(4-methoxyphenyl)vinyl)pyridine], the IC50 in the data set with human CRC HT-29 cells (48 h) and in the data set with human CRC HCT116 cells (48 h) was over 50 µM in each case.
Consider `COc1ccc(C(=Cc2ccc(C)cc2)c2ccccn2)cc1` [Compound 7b, 2-(1-(4-methoxyphenyl)-2-(p-tolyl)vinyl)pyridine], for which the “Cell viability (%) HT-29” value in the data set with human CRC HT-29 cells (50 µM, 48 h, MTT screening) is under 50%. Also, the IC50 in the data set with human CRC HT-29 cells (48 h) is 36.2 ± 4.56 µM; in the data set with human CRC HCT116 cells (48 h), over 50 µM.
`COc1ccc(C(=Cc2ccc(F)cc2)c2ccccn2)cc1` [Compound 15a, 2-(2-(4-fluorophenyl)-1-(4-methoxyphenyl)vinyl)pyridine]: the IC50 was 43.43 ± 0.31 µM in the data set with human CRC HT-29 cells (Homo sapiens, HT-29, 48 h) and over 50 µM in the data set on human CRC HCT116 cells (Homo sapiens, HCT-116, 48 h). The molecule also showed a viability at 50 µM in the data set on human CRC HT-29 cells (setting [1]) of under 50%.
For the molecule `COc1ccc(C(=Cc2ccc(Cl)cc2)c2ccccn2)cc1` [Compound 14a, 2-(2-(4-chlorophenyl)-1-(4-methoxyphenyl)vinyl)pyridine], the IC50 with human CRC HT-29 cells (Homo sapiens, HT-29, 48 h) is under 30 µM; in the data set with human CRC HT-29 cells (48 h), 28.5 ± 1.82 µM; with human CRC HCT116 cells (Homo sapiens, HCT-116, 48 h), 42.7 ± 2.24 µM. In addition, the viability at 50 µM with human CRC HT-29 cells (setting [1]) and in the data set on human CRC HCT116 cells (setting [1]) was under 50% in each case.
Consider `COc1ccc(C(=Cc2ccc(Br)cc2)c2ccccn2)cc1` [Compound 13b, 2-(2-(4-bromophenyl)-1-(4-methoxyphenyl)vinyl)pyridine], for which the IC50 in the data set on human CRC HT-29 cells (48 h) was over 50 µM; in the data set on human CRC HCT116 cells (Homo sapiens, HCT-116, 48 h), under 35 µM; in the data set with human CRC HCT116 cells (48 h), 26.1 ± 2.08 µM. The viability at 50 µM with human CRC HCT116 cells (setting [1]) is under 50%.
In the case of `COc1ccc(C(=Cc2ccc(C(C)C)cc2)c2ccccn2)cc1` [Compound 9a, 2-(2-(4-isopropylphenyl)-1-(4-methoxyphenyl)vinyl)pyridine], the IC50 in the data set with human CRC HT-29 cells (48 h) and with human CRC HCT116 cells (48 h) was over 50 µM throughout.
In the case of `COc1ccc(C(=Cc2ccc(Br)cc2)c2ccccn2)cc1` [Compound 13a, 2-(2-(4-bromophenyl)-1-(4-methoxyphenyl)vinyl)pyridine], the viability at 50 µM in the data set with human CRC HT-29 cells (setting [1]) was under 50%. Further, the IC50 with human CRC HT-29 cells (48 h) worked out at 24 ± 2.65 µM; in the data set with human CRC HCT116 cells (48 h), 36.6 ± 2.94 µM. In the data set with human CRC HCT116 cells (50 µM, 48 h, MTT screening), the “Cell viability (%) HCT116” value is under 50%.
